Experimental data published in PubChem BioAssay AID1745844 (Carcinogenic Potency Database (CPDB), 2022).
Activity calls are given as the source filed them. How the calls were made is not given here.

Test system: rodent lifetime carcinogenesis bioassay, tumor incidence TD50
Test: carcinogenic potency in animals, long-term in vivo studies, CPDB compilation (AID 1745844)
Settings: in feed, dosed 40 weeks

## O=[N+]([O-])c1ccc(-c2cnc3ccccn23)o1
mouse, strain CTM, females, site: any site (literature study), lesion: several types, types named in the paper, study length 79 weeks
  carcinogen call: positive
mouse, strain CTM, females, site: liver, lesion: hepatoma, study length 79 weeks
  carcinogen call: negative (inactive)
mouse, strain CTM, females, site: lung, lesion: one or several types, types not named, study length 79 weeks
  carcinogen call: negative (inactive)
mouse, strain CTM, females, site: several sites, sites named in the paper, lesion: carcinoma, study length 79 weeks
  TD50: 21.6 mg/kg/day
mouse, strain CTM, females, site: several sites, sites named in the paper, lesion: papilloma, study length 79 weeks
  TD50: 117 mg/kg/day
mouse, strain CTM, females, site: thyroid gland, lesion: lymphosarcoma, study length 79 weeks
  TD50: 781 mg/kg/day
mouse, strain CTM, males, site: any site (literature study), lesion: several types, types named in the paper, study length 73 weeks
  TD50: 57.1 mg/kg/day
mouse, strain CTM, males, site: liver, lesion: hepatoma, study length 73 weeks
  carcinogen call: negative (inactive)
mouse, strain CTM, males, site: lung, lesion: one or several types, types not named, study length 73 weeks
  TD50: 763 mg/kg/day (inactive)
mouse, strain CTM, males, site: several sites, sites named in the paper, lesion: carcinoma, study length 73 weeks
  TD50: 40.1 mg/kg/day
mouse, strain CTM, males, site: several sites, sites named in the paper, lesion: papilloma, study length 73 weeks
  TD50: 65.8 mg/kg/day
rat, strain Wistar, females, site: any site (literature study), lesion: several types, types named in the paper, study length 89 weeks
  TD50: 15.8 mg/kg/day
rat, strain Wistar, females, site: kidney, lesion: one or several types, types not named, study length 89 weeks
  TD50: 116 mg/kg/day
rat, strain Wistar, females, site: liver, lesion: hepatoma, study length 89 weeks
  TD50: 644 mg/kg/day
rat, strain Wistar, females, site: mammary tissue, wider than the gland, lesion: one or several types, types not named, study length 89 weeks
  TD50: 33.3 mg/kg/day
rat, strain Wistar, females, site: several sites, sites named in the paper, lesion: carcinoma, study length 89 weeks
  TD50: 443 mg/kg/day
rat, strain Wistar, females, site: several sites, sites named in the paper, lesion: papilloma, study length 89 weeks
  TD50: 27.5 mg/kg/day
rat, strain Wistar, males, site: any site (literature study), lesion: several types, types named in the paper, study length 83 weeks
  TD50: 11.9 mg/kg/day
rat, strain Wistar, males, site: kidney, lesion: one or several types, types not named, study length 83 weeks
  TD50: 21.4 mg/kg/day
rat, strain Wistar, males, site: liver, lesion: hepatoma, study length 83 weeks
  TD50: 959 mg/kg/day
rat, strain Wistar, males, site: several sites, sites named in the paper, lesion: carcinoma, study length 83 weeks
  TD50: 104 mg/kg/day
rat, strain Wistar, males, site: several sites, sites named in the paper, lesion: papilloma, study length 83 weeks
  TD50: 43.7 mg/kg/day
